Data taken from PMC4051630, “A Comparison of Protein Kinases Inhibitor Screening Methods Using Both Enzymatic Activity and Binding Affinity Determination” (PLoS ONE, 2014).

Columns and labels:
Test in all cases: Differential Scanning Fluorimetry (DSF) Tm shift
Assay type in all cases: binding
[1] = molecular target: T1, PAK4 Catalytic Domain+PBD (Homo sapiens, UniProt O96013); conditions: 2 µM protein, 10 µM inhibitor, average of 3 experiments, each in duplicate
T1 construct: for 8, we also made a longer version containing one or more additional domains; His-tag; made in house; host or cells: Escherichia coli
T1 sequence (O96013 whole entry, the tested form may be a part): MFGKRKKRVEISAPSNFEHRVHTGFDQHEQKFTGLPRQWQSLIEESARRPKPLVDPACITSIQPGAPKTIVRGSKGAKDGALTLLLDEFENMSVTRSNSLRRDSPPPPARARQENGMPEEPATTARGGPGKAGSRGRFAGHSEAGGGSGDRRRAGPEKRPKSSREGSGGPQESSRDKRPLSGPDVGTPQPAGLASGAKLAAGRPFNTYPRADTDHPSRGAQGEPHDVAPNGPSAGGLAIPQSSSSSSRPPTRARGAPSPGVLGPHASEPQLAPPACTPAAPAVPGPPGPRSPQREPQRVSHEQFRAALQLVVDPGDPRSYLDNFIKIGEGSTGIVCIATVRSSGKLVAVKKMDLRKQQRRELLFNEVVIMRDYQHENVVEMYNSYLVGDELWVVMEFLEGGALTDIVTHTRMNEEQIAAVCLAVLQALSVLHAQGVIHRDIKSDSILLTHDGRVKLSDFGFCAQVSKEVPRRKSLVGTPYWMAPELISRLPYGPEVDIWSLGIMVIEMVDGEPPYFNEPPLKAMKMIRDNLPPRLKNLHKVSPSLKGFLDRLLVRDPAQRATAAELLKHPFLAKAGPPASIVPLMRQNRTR

CDK2 + Cyclin A = molecular target: T2, CDK2 + Cyclin A (Homo sapiens, UniProt P24941); conditions: CDK2 + Cyclin A; 2 µM protein, 10 µM inhibitor; average of 3 experiments, each in duplicate
T2 construct: CDK2 (P24941); 1–299; His-tag; made in house; host or cells: Escherichia coli

CDK2 + Cyclin E = molecular target: T3, CDK2 + Cyclin E (Homo sapiens, UniProt P24941); conditions: CDK2 + Cyclin E; 2 µM protein, 10 µM inhibitor; average of 3 experiments, each in duplicate
T3 construct: CDK2 (P24941); 1–299; His-tag; made in house; host or cells: Escherichia coli

FAK2 Catalytic Domain = molecular target: T4, FAK2 Catalytic Domain (Homo sapiens, UniProt Q14289); conditions: 2 µM protein, 10 µM inhibitor, average of 3 experiments, each in duplicate
T4 construct: For all of them, we expressed and purified the catalytic domain separately; His-tag; made in house; host or cells: Escherichia coli
T4 sequence (Q14289 425-683 limits assumed): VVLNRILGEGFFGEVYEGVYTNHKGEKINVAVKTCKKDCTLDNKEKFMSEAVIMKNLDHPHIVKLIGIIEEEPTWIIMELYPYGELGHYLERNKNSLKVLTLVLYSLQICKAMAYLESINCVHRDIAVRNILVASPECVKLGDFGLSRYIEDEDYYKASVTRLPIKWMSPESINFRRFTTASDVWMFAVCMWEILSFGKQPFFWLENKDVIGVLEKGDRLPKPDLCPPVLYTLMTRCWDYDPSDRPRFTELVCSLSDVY

[2] = molecular target: T5, STK3 Catalytic domain+SARAH (Homo sapiens, UniProt Q13188); conditions: 2 µM protein, 10 µM inhibitor, average of 3 experiments, each in duplicate
T5 construct: for 8, we also made a longer version containing one or more additional domains; His-tag; made in house; host or cells: Escherichia coli
T5 sequence (Q13188 1-491): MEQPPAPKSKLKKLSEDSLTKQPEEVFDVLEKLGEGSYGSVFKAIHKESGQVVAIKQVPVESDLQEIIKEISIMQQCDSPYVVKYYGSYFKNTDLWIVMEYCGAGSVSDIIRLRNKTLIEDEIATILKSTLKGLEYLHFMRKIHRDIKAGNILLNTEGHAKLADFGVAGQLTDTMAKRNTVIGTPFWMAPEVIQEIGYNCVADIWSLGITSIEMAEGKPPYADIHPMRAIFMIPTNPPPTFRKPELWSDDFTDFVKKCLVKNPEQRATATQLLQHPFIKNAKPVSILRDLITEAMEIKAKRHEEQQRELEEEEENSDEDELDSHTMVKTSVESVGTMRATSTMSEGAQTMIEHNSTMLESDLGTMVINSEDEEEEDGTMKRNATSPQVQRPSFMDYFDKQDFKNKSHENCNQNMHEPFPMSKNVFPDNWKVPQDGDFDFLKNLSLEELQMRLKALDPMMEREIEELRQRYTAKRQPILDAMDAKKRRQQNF

PAK4 Catalytic Domain = molecular target: T6, PAK4 Catalytic Domain (Homo sapiens, UniProt O96013); conditions: 2 µM protein, 10 µM inhibitor, average of 3 experiments, each in duplicate
T6 construct: For all of them, we expressed and purified the catalytic domain separately; His-tag; made in house; host or cells: Escherichia coli
T6 sequence (O96013 321-572 limits assumed): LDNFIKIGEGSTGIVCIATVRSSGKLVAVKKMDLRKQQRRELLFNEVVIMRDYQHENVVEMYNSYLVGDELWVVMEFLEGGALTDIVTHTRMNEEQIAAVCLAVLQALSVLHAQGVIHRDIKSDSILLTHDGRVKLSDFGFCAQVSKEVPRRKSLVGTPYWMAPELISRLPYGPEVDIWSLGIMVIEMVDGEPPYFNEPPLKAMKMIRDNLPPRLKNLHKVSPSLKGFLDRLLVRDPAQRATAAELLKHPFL

PAK7 Catalytic Domain = molecular target: T7, PAK7 Catalytic Domain (Homo sapiens, UniProt Q9P286); conditions: 2 µM protein, 10 µM inhibitor, average of 3 experiments, each in duplicate
T7 construct: For all of them, we expressed and purified the catalytic domain separately; His-tag; made in house; host or cells: Escherichia coli
T7 sequence (Q9P286 449-700 limits assumed): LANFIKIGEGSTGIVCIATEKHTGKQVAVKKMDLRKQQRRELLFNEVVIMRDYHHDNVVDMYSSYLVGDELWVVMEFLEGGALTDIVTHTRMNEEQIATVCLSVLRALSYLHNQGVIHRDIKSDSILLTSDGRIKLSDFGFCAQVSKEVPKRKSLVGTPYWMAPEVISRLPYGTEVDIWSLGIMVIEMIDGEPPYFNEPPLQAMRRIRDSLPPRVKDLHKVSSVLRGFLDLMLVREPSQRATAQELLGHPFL

CHK2 Catalytic Domain = molecular target: T8, CHK2 Catalytic Domain (Homo sapiens, UniProt O96017); conditions: 2 µM protein, 10 µM inhibitor, average of 3 experiments, each in duplicate
T8 construct: For all of them, we expressed and purified the catalytic domain separately; His-tag; made in house; host or cells: Escherichia coli
T8 sequence (O96017 220-486 limits assumed): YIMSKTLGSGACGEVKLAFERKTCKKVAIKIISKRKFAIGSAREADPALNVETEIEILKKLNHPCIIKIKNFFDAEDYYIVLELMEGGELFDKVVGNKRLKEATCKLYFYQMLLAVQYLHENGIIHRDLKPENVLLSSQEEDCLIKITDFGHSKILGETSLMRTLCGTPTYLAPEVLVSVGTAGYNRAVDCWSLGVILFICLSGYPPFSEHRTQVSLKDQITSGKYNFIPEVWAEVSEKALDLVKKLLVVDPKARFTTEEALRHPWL

STK3 Catalytic Domain = molecular target: T9, STK3 Catalytic Domain (Homo sapiens, UniProt Q13188); conditions: 2 µM protein, 10 µM inhibitor, average of 3 experiments, each in duplicate
T9 construct: For all of them, we expressed and purified the catalytic domain separately; His-tag; made in house; host or cells: Escherichia coli
T9 sequence (Q13188 27-278 limits assumed): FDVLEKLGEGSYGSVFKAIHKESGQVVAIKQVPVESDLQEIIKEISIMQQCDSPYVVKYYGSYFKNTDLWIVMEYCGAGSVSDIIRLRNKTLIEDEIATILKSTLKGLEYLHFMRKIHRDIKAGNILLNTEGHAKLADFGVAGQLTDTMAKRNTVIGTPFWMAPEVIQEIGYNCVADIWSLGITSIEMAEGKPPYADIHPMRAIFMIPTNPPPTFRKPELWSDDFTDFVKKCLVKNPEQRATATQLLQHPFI

[3] = molecular target: SRC Catalytic Domain+SH2+SH3 (Homo sapiens, UniProt P12931); conditions: 2 µM protein, 10 µM inhibitor, average of 3 experiments, each in duplicate
Chain of SRC Catalytic Domain+SH2+SH3 (P12931 84-523 limits assumed): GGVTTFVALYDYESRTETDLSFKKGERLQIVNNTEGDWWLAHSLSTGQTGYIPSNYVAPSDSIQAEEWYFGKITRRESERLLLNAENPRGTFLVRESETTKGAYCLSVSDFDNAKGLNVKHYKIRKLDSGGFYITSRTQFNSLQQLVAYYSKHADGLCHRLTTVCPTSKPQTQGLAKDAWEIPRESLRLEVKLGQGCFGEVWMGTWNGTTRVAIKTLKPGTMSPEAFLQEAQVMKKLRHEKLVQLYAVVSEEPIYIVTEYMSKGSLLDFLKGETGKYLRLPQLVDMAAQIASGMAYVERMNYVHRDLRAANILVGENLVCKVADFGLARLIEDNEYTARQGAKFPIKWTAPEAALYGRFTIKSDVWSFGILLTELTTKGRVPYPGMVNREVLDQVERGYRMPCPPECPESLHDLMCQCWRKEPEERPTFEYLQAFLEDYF

AKT3 Catalytic Domain = molecular target: T10, AKT3 Catalytic Domain (Homo sapiens, UniProt Q9Y243); conditions: 2 µM protein, 10 µM inhibitor, average of 3 experiments, each in duplicate
T10 construct: AKT3 (Q9Y243); CD; His-tag; made in house; host or cells: Escherichia coli
T10 sequence (Q9Y243 122-479): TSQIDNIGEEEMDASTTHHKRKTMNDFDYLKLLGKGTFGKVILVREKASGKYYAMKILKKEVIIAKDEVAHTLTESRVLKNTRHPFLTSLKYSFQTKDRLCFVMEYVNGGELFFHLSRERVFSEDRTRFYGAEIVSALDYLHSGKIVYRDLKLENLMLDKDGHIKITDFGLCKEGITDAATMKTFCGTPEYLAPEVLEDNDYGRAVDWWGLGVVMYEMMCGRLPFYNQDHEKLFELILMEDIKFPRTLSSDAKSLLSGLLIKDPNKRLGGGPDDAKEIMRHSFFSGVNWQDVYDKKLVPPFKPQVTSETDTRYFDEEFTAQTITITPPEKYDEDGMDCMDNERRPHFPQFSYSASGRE

FES Catalytic Domain = molecular target: T11, FES Catalytic Domain (Homo sapiens, UniProt P07332); conditions: 2 µM protein, 10 µM inhibitor, average of 3 experiments, each in duplicate
T11 construct: For all of them, we expressed and purified the catalytic domain separately; His-tag; made in house; host or cells: Escherichia coli
T11 sequence (P07332 561-822 limits assumed): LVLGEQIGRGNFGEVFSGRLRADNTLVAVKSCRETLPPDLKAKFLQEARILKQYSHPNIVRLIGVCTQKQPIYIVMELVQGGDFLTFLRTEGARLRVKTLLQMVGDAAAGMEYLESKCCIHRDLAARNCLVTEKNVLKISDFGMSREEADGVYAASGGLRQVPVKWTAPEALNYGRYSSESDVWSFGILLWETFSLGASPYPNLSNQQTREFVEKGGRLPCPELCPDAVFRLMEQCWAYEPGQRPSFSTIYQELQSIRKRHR

DMPK Catalytic Domain = molecular target: T12, DMPK Catalytic Domain (Homo sapiens, UniProt Q09013); conditions: 2 µM protein, 10 µM inhibitor, average of 3 experiments, each in duplicate
T12 construct: For all of them, we expressed and purified the catalytic domain separately; His-tag; made in house; host or cells: Escherichia coli
T12 sequence (Q09013 71-339 limits assumed): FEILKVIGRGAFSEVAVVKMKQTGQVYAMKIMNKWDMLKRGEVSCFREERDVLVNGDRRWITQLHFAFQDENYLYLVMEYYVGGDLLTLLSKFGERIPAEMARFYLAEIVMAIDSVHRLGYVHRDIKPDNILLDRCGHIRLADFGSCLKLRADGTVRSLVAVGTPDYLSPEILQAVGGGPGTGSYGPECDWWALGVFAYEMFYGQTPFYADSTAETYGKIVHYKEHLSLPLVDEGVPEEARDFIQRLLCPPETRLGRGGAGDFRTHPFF

FES Catalytic Domain+SH2 = molecular target: T13, FES Catalytic Domain+SH2 (Homo sapiens, UniProt P07332); conditions: 2 µM protein, 10 µM inhibitor, average of 3 experiments, each in duplicate
T13 construct: for 8, we also made a longer version containing one or more additional domains; His-tag; made in house; host or cells: Escherichia coli
T13 sequence (P07332 448-822 limits assumed): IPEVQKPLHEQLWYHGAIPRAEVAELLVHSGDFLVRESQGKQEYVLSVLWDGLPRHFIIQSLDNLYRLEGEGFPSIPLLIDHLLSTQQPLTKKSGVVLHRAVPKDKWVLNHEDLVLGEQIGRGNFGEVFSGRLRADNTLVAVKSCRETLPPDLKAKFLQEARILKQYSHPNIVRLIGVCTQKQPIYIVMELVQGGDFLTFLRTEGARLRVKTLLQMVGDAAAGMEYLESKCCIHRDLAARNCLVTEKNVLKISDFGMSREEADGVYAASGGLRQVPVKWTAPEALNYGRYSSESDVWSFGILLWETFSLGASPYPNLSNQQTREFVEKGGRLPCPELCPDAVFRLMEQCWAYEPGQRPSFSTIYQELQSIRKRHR

SRC Catalytic Domain = SRC Catalytic Domain (Homo sapiens, UniProt P12931); parameters: For all of them, we expressed and purified the catalytic domain separately; His-tag; made in house; host or cells: Escherichia coli; conditions: 2 µM protein, 10 µM inhibitor, average of 3 experiments, each in duplicate
Chain of SRC Catalytic Domain (P12931 270-523 limits assumed): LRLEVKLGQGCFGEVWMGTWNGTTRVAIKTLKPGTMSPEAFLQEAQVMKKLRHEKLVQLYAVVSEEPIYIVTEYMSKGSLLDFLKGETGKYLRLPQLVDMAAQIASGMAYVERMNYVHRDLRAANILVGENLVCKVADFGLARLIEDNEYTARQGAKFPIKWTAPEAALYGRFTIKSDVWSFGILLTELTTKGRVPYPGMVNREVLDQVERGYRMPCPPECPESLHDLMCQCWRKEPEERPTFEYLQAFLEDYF

| Compound | Melting temperature (Tm) shift [1] [degrees Celcius] | Melting temperature (Tm) shift (CDK2 + Cyclin A) [degrees Celcius] | Melting temperature (Tm) shift (CDK2 + Cyclin E) [degrees Celcius] | Melting temperature (Tm) shift (FAK2 Catalytic Domain) [degrees Celcius] | Melting temperature (Tm) shift [2] [degrees Celcius] | Melting temperature (Tm) shift (PAK4 Catalytic Domain) [degrees Celcius] | Melting temperature (Tm) shift (PAK7 Catalytic Domain) [degrees Celcius] | Melting temperature (Tm) shift (CHK2 Catalytic Domain) [degrees Celcius] | Melting temperature (Tm) shift (STK3 Catalytic Domain) [degrees Celcius] | Melting temperature (Tm) shift [3] [degrees Celcius] | Melting temperature (Tm) shift (AKT3 Catalytic Domain) [degrees Celcius] | Melting temperature (Tm) shift (FES Catalytic Domain) [degrees Celcius] | Melting temperature (Tm) shift (DMPK Catalytic Domain) [degrees Celcius] | Melting temperature (Tm) shift (FES Catalytic Domain+SH2) [degrees Celcius] | Melting temperature (Tm) shift (SRC Catalytic Domain) [degrees Celcius] |
| --- | --- | --- | --- | --- | --- | --- | --- | --- | --- | --- | --- | --- | --- | --- | --- |
| Cl.Cl.O=S(=O)(NCCNC/C=C/c1ccc(Br)cc1)c1cccc2cnccc12 [H-89, Dihydrochloride] | 0.0 | 0.5 | 0.3 | 0.8 | 0.4 | 0.4 | 0.3 | 0.5 | 0.0 | 0.0 | 0.3 | 0.4 | 0.0 | 0.2 | – |
| O=C1NC(=O)c2c1c1c3ccccc3[nH]c1n1cncc21 [Isogranulatimide] | – | 0.1 | 0.2 | 0.8 | 1.3 | 0.4 | 0.2 | 4.5 | 2.6 | – | 2.9 | 1.6 | 0.5 | 0.5 | – |
| O=c1c(O)c(-c2ccc(O)c(O)c2)oc2cc(O)c(O)c(O)c12 [Quercetagetin] | 0.3 | 0.2 | 0.7 | 0.2 | 0.5 | 0.0 | 0.1 | 1.1 | 0.2 | 0.0 | 2.5 | 0.1 | – | 0.1 | – |
| Nc1ncnc2c1c(I)cn2[C@@H]1O[C@H](CO)[C@@H](O)[C@H]1O [5-Iodotubercidin] | 0.7 | 2.5 | 1.3 | 0.4 | 1.5 | 0.7 | 0.4 | 0.6 | 3.0 | 0.1 | 0.0 | 1.0 | 0.2 | 0.0 | – |

Further lines, results first:

| Melting temperature (Tm) shift [1] [degrees Celcius] | Melting temperature (Tm) shift (CDK2 + Cyclin A) [degrees Celcius] | Melting temperature (Tm) shift (CDK2 + Cyclin E) [degrees Celcius] | Melting temperature (Tm) shift (FAK2 Catalytic Domain) [degrees Celcius] | Melting temperature (Tm) shift [2] [degrees Celcius] | Melting temperature (Tm) shift (PAK4 Catalytic Domain) [degrees Celcius] | Melting temperature (Tm) shift (PAK7 Catalytic Domain) [degrees Celcius] | Melting temperature (Tm) shift (CHK2 Catalytic Domain) [degrees Celcius] | Melting temperature (Tm) shift (STK3 Catalytic Domain) [degrees Celcius] | Melting temperature (Tm) shift [3] [degrees Celcius] | Melting temperature (Tm) shift (AKT3 Catalytic Domain) [degrees Celcius] | Melting temperature (Tm) shift (FES Catalytic Domain) [degrees Celcius] | Melting temperature (Tm) shift (DMPK Catalytic Domain) [degrees Celcius] | Melting temperature (Tm) shift (FES Catalytic Domain+SH2) [degrees Celcius] | Melting temperature (Tm) shift (SRC Catalytic Domain) [degrees Celcius] | Compound |
| --- | --- | --- | --- | --- | --- | --- | --- | --- | --- | --- | --- | --- | --- | --- | --- |
| 1.6 | 2.1 | 0.7 | 0.7 | 4.6 | 1.4 | 1.1 | 5.6 | 1.8 | 0.0 | 0.6 | 0.8 | 4.2 | 0.5 | – | Cl.NCCCn1cc(C2=C(c3c[nH]c4ccccc34)C(=O)NC2=O)c2ccccc21 [Bisindolylmaleimide III, Hydrochloride] |
| 1.1 | 7.5 | 5.5 | 0.5 | 0.2 | 1.9 | 2.0 | 0.6 | 0.8 | – | 0.0 | 0.6 | 1.3 | 0.1 | – | CC(C)c1nn(-c2c(Cl)cccc2Cl)c2nc(Cc3ccc(OCCO)cc3)[nH]c(=O)c12 [Cdk/Crk Inhibitor] |
| – | – | – | – | 0.2 | – | 0.0 | 2.2 | 1.3 | 6.4 | – | 0.7 | – | 0.3 | 9.4 | Nc1ncnc2c1c(-c1ccc(Oc3ccccc3)cc1)cn2C1CCCC1 [Lck Inhibitor] |
| 1.0 | 1.2 | 0.3 | 1.0 | 1.3 | 1.1 | 0.7 | 5.2 | 2.0 | – | 0.1 | 2.6 | 1.4 | 0.9 | – | O=C1c2ccccc2-c2n[nH]c3cccc1c23 [JNK Inhibitor II] |
| 0.1 | 0.2 | 0.3 | 0.4 | 0.3 | 0.1 | 0.0 | 0.3 | 0.2 | 0.1 | 0.0 | – | 0.8 | 0.0 | – | N#CC(c1ccnc(NCCc2cccnc2)n1)c1nc2ccccc2s1 (stereo not drawn) [JNK Inhibitor V] |
